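Cultured in 96-well plates, cells were exposed to test compound for 48 hours across five concentrations. TGI is the concentration that stops growth completely.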
Key:
Test in all cases: NCI tumour cell line growth inhibition, 48 h
[1] = system: KM12 colon
[2] = system: OVCAR-3 ovarian
[3] = system: NCI-H23 lung
[4] = system: U251 CNS
[5] = system: SW-620 colon
[6] = system: PC-3 prostate
[7] = system: UACC-257 melanoma
[8] = system: SK-MEL-28 melanoma
[9] = system: UO-31 renal
[10] = system: HOP-92 NSCLC
[11] = system: EKVX NSCLC
[12] = system: OVCAR-8 ovarian
[13] = system: SN12C renal
[14] = system: HOP-62 NSCLC
[15] = system: SNB-75 CNS
[16] = system: HS 578T breast
[17] = system: NCI-H460 lung
[18] = system: NCI-H226 lung
[19] = system: UACC-62 melanoma

Row | SMILES | TGI [1] | TGI [2] | TGI [3] | TGI [4] | TGI [5] | TGI [6] | TGI [7] | TGI [8] | TGI [9] | TGI [10] | TGI [11] | TGI [12] | TGI [13] | TGI [14] | TGI [15] | TGI [16] | TGI [17] | TGI [18] | TGI [19]
1 | Cc1ccc(-c2n[nH]c(=O)n2/N=C\c2ccc([N+](=O)[O-])cc2)cc1 | > 100 µM | > 100 µM | > 100 µM | > 100 µM | > 100 µM | > 100 µM | > 100 µM | > 100 µM | > 100 µM | > 100 µM | > 100 µM | > 100 µM | > 100 µM | > 100 µM | > 100 µM | > 100 µM | > 100 µM | > 100 µM | > 100 µM
2 | CC(=O)Oc1ccc2c(c1)c1c(=O)oc(C)nc1n2Cc1ccccc1 | > 100 µM | > 100 µM | > 100 µM | > 100 µM | > 100 µM | > 100 µM | > 100 µM | > 100 µM | 13.8 µM | > 100 µM | > 100 µM | > 100 µM | > 100 µM | > 100 µM | > 87.7 µM | > 100 µM | > 100 µM | > 69.7 µM | > 31.6 µM
3 | CC1CC[C@@]2(OC1)OC1C[C@H]3[C@@H]4CC[C@H]5CC(OC6OC(CO)C(O)C(OC7OC(CO)C(OC8OC(CO)C(O)C(OC9OC(CO)C(O)C(O)C9O)C8OC8OC(CO)C(O)C(O)C8O)C(O)C7O)C6O)[C@H](O)CC5(C)[C@H]4CCC3(C)C1[C@@H]2C (stereo partly drawn) | 12.2 µM | 1.93 µM | 12.7 µM | 9.43 µM | 8.32 µM | 6.66 µM | 16.9 µM | 14.5 µM | 6.9 µM | 12.1 µM | 10.8 µM | 6.67 µM | 9.03 µM | 11.3 µM | 10.9 µM | 6.16 µM | 15.5 µM | 13.3 µM | 16.6 µM
4 | CCCCCCCCCCCCC/C=C/[C@@H](O)[C@H](COC1OC(CO)C(OC2OC(CO)C(O)C(OC3(C(=O)O)CC(O)C(NC(C)=O)C(C(O)C(O)CO)O3)C2O)C(O)C1O)N=[N+]=[N-] (stereo partly drawn) | 34.1 µM | > 100 µM | > 100 µM | 36.1 µM | 61.7 µM | 59.4 µM | > 100 µM | 60.5 µM | 44.1 µM | > 100 µM | > 100 µM | 44.9 µM | > 100 µM | 46.2 µM | 37.1 µM | > 100 µM | > 100 µM | 45.9 µM | 37.1 µM
5 | O=C1c2cccc3cccc(c23)C(=O)N1CCCNCCCNCCCCNCCCNCCCN1C(=O)c2cccc3cccc(c23)C1=O | 13.9 µM | 19.6 µM | 16 µM | 20.2 µM | 14.9 µM | 13.4 µM | 22.6 µM | 9 µM | 30.4 µM | 22 µM | 22 µM | 40 µM | 16.4 µM | 27.3 µM | 12.5 µM | 13.3 µM | 14.1 µM | 28.6 µM | 12.3 µM
6 | O=C1/C(=C/c2cccc(Br)c2)Cc2ccccc21 | > 100 µM | > 100 µM | > 100 µM | > 100 µM | > 100 µM | > 100 µM | > 100 µM | > 100 µM | > 100 µM | > 100 µM | > 100 µM | > 100 µM | > 100 µM | > 100 µM | > 100 µM | > 100 µM | > 100 µM | > 100 µM | > 100 µM
7 | CC(C)(C)OC(=O)NC(Cc1ccc(OC(C)(C)C)cc1)C(=O)N[C@H]1CCC[C@H]1C(=O)NC(Cc1ccccc1)C(=O)N1CCCC1C(N)=O (stereo partly drawn) | > 100 µM | > 100 µM | > 100 µM | > 100 µM | > 100 µM | > 100 µM | > 100 µM | > 100 µM | > 100 µM | > 100 µM | > 100 µM | > 100 µM | > 100 µM | > 100 µM | > 100 µM | > 100 µM | > 100 µM | > 100 µM | > 100 µM
8 | O=C(c1cccs1)N(C(=O)N1CCN(c2ccccc2)CC1)S(=O)(=O)c1ccccc1 | > 100 µM | > 100 µM | 59.5 µM | 33.3 µM | > 100 µM | 94.6 µM | 69.9 µM | 56.3 µM | 40.8 µM | 55.6 µM | 42.3 µM | 39.5 µM | 35.1 µM | > 100 µM | 61.2 µM | 65.9 µM | 97.3 µM | 53.8 µM | 33.8 µM
9 | Cc1cc(C)c(C[C@H]2COC(=O)[C@]2(O)Cc2c(C)cc(C)cc2C)c(C)c1 | 37.1 µM | 31.3 µM | 47.2 µM | 38.4 µM | 53.8 µM | 32.1 µM | 34.6 µM | 76.5 µM | 38.4 µM | 29.7 µM | 28.2 µM | 45.2 µM | 36.8 µM | 35.8 µM | 43.6 µM | 38.5 µM | 33.3 µM | 33.7 µM | 28.5 µM
10 | CCC(C)C1NC(=O)C(NC(=O)c2c3[nH]c4c(C(=O)NC5C(=O)NC(C(C)CC)C(=O)N6CCCC6C(=O)N(C)CC(=O)N(C)C(C(C)C)C(=O)OC5C)ccc(C)c4oc-3c(C)c(=O)c2=O)C(C)OC(=O)C(C(C)C)N(C)C(=O)CN(C)C(=O)C2CCCN2C1=O (stereo not drawn) | > 56.7 µM | 62.9 µM | 45.3 µM | > 100 µM | > 93.7 µM | > 100 µM | 38.6 µM | 76.3 µM | > 77 µM | > 80.3 µM | > 100 µM | 38.3 µM | > 100 µM | > 100 µM | 32.9 µM | 37.8 µM | 8.45 µM | > 51.6 µM | 17.6 µM
11 | O=C(O/C=C\OC1CCCC1(c1ccccc1)c1ccccc1)c1ccccc1 (stereo not drawn) | 33.1 µM | 21.3 µM | 6.07 µM | 12.4 µM | 11.3 µM | 13.6 µM | 33 µM | 18.3 µM | 3.84 µM | 4.97 µM | 34.8 µM | 12.1 µM | 13.7 µM | 36.9 µM | 20.9 µM | 23.6 µM | 88.8 µM | 43.2 µM | 16.8 µM
12 | O=C1c2cccc3cccc(c23)C2NCCCN12 (stereo not drawn) | > 100 µM | > 100 µM | > 100 µM | > 100 µM | > 100 µM | > 100 µM | > 100 µM | > 100 µM | > 100 µM | > 100 µM | > 100 µM | > 100 µM | > 100 µM | > 100 µM | 89.5 µM | > 100 µM | > 100 µM | > 100 µM | > 100 µM
